{
  "source": "paper PMC5054527",
  "about": "“Mechanism of high affinity inhibition of the human urate transporter URAT1” (Scientific Reports, 2016)",
  "test_in_all_cases": "URAT1 uric acid transport activity assay",
  "type_in_all_cases": "cell-based",
  "key": {"[1]": {"molecular_target": "T1, r-F351C rURAT1 point mutant (Rattus norvegicus, UniProt Q3ZAV1, F351C)", "T1 sequence (Q3ZAV1 1-553 F351C)": "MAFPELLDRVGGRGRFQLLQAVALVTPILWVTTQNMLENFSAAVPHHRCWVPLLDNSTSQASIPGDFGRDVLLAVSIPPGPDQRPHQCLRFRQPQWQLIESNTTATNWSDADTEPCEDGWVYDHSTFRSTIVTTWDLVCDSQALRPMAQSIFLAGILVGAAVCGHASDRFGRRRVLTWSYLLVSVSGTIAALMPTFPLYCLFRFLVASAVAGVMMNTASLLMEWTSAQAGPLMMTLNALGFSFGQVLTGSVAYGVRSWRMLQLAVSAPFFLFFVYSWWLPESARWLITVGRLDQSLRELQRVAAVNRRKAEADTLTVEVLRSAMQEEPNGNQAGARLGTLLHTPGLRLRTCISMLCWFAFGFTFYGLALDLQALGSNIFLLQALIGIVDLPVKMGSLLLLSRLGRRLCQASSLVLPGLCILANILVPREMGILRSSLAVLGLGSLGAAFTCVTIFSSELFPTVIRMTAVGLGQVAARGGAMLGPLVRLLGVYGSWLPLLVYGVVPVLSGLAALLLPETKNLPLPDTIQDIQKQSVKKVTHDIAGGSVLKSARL", "how_it_was_run": "(§1)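 Readout: 14C-uric acid uptake (100 μM, 10 min) in cells transiently transfected one day earlier with mutant rURAT1. Serially diluted inhibitors were added 5 min before substrate. Triplicate points, four-parameter logistic fit for IC50.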"}, "[2]": {"molecular_target": "T2, r-V22M rURAT1 point mutant (Rattus norvegicus, UniProt Q3ZAV1, V22M)", "T2 sequence (Q3ZAV1 1-553 V22M)": "T1 sequence (Q3ZAV1 1-553 F351C) with V22M, C351F", "how_it_was_run": "as §1"}, "[3]": {"molecular_target": "T3, r-V25M rURAT1 point mutant (Rattus norvegicus, UniProt Q3ZAV1, V25M)", "T3 construct": "expressed in transfected cells; host or cells: HEK-293T", "T3 sequence (Q3ZAV1 1-553 V25M)": "T1 sequence (Q3ZAV1 1-553 F351C) with V25M, C351F", "how_it_was_run": "as §1"}},
  "note": "Residue numbers refer to the chain shown, from its start. Read-outs that look alike come from different tables or passages of the source.",
  "data": [
    {"smiles": "O=C1C(CC[S+]([O-])c2ccccc2)C(=O)N(c2ccccc2)N1c1ccccc1", "note": "(stereo not shown) [sulfinpyrazone]", "values": [
      {"measurement": "IC50", "setting": "[1]; r-F351C, HEPES pH 7.3, 100 μM 14C-uric acid, read-out: IC50 (uric acid transport)", "value": "924 ± 276", "unit": "µM"},
      {"measurement": "IC50", "setting": "[2]; r-V22M, HEPES pH 7.3, 100 μM 14C-uric acid, read-out: IC50 (uric acid transport)", "value": "762 ± 177", "unit": "µM"},
      {"measurement": "fold increased affinity of r-V25M compared to rURAT1", "setting": "[3]; from IC50 values", "value": 49, "unit": "fold"},
      {"measurement": "IC50", "setting": "[3]; r-V25M, HEPES pH 7.3, 100 μM 14C-uric acid, read-out: IC50 (uric acid transport)", "value": "14 ± 2.3", "unit": "µM"}
    ]},
    {"smiles": "O=C(O)CSc1nnc(Br)n1-c1ccc(C2CC2)c2ccccc12", "note": "[lesinurad, 2-((5-bromo-4-(4-cyclopropylnaphthalen-1-yl)-4H-1,2,4-triazol-3-yl)thio)acetic acid]", "values": [
      {"measurement": "IC50", "setting": "[1]; r-F351C, MES pH 5.5, 100 μM 14C-uric acid, read-out: IC50 (uric acid transport)", "value": "82 ± 1.7", "unit": "µM"},
      {"measurement": "IC50", "setting": "[2]; r-V22M, MES pH 5.5, 100 μM 14C-uric acid, read-out: IC50 (uric acid transport)", "value": "74 ± 8.9", "unit": "µM"},
      {"measurement": "IC50", "setting": "[3]; r-V25M, MES pH 5.5, 100 μM 14C-uric acid, read-out: IC50 (uric acid transport)", "value": "59 ± 17", "unit": "µM"}
    ]},
    {"smiles": "CCc1oc2ccccc2c1C(=O)c1cc(Br)c(O)c(Br)c1", "note": "[benzbromarone]", "values": [
      {"measurement": "IC50", "setting": "[1]", "value": "24 ± 3.3", "unit": "µM"},
      {"measurement": "IC50", "setting": "[2]", "value": "20 ± 2.7", "unit": "µM"},
      {"measurement": "IC50", "setting": "[3]", "value": "11 ± 2.7", "unit": "µM"}
    ]}
  ]
}
